How the values were obtained:
[1] = Water solubility study on drug loaded dendrimers; format: physicochemical; conditions: for Water solubility of dendrimer: deionised water, until full dissolution; for Equivalent drug solubility on dendrimer: water solubility x % drug loading/100
Procedure: Protocol: To 30 mg of dendrimer (freeze-dried from water) was added 100 μL of deionised water. After mixing for 10 minutes, additional aliquots of water (10-30 μL per addition) were added with vortexing and incubation for 10 mins until full dissolution was obtained. This amount is represented in Table 1 as the water solubility of the dendrimer. The equivalent drug solubility is determined by multiplying the % drug loading/100 and is represented in Table 1 (column 3) as Equivalent drug solubility on dendrimer. Finally, the fold increase is obtained by dividing the Equivalent drug solubility on dendrimer by the solubility of the drug and is represented in Table 1 (column 4).

MDA-MB-231 tumours = experiment: Xenograft MDA-MB-231 efficacy study; format: in vivo, female Balb/c nude mice
DU145 (Prostate) = experiment: Cell growth inhibition SRB assay; format: cell-based
Procedure: (§1) All solutions were prepared in saline (except docetaxel which was made in ethanol). All solutions were stored at −20° C. All values were based on the equivalent drug loading.

MDA-MB-231 (Breast) = experiment: Cell growth inhibition SRB assay; format: cell-based
Procedure: as §1

A549 (Lung) = experiment: Cell growth inhibition SRB assay; format: cell-based
Procedure: as §1

HT29 (Colon) = experiment: Cell growth inhibition SRB assay; format: cell-based
Procedure: as §1

A2058 (Melanoma) = experiment: Cell growth inhibition SRB assay; format: cell-based
Procedure: as §1

MCAS (Ovarian) = experiment: Cell growth inhibition SRB assay; format: cell-based
Procedure: as §1

PC-3 (Prostate) = experiment: Cell growth inhibition SRB assay; format: cell-based
Procedure: as §1

H460 (Lung) = experiment: Cell growth inhibition SRB assay; format: cell-based
Procedure: as §1

HCT116 (Colon) = experiment: Cell growth inhibition SRB assay; format: cell-based
Procedure: as §1

ES2 (Ovarian) = experiment: Cell growth inhibition SRB assay; format: cell-based
Procedure: as §1

[2] = Plasma stability study: docetaxel release in mouse plasma; format: in vitro ADME; conditions: 37° C.
Procedure: Protocol: To 0.5 mL of mouse plasma was added 0.1 mL of dendrimer solution (2 mg/mL, drug equivalent in saline). The mixtures were vortexed (30 s) then incubated at 37° C. At various timepoints (0.5, 2.5, 4.5, 22 hours) 0.1 mL aliquots were removed and added to 0.2 mL ACN. The resulting mixtures were vortexed (30 s), centrifuged (10 min, 4° C.) filtered and analysed by HPLC (C8, 3.9×150 mm, 5 μm, wavelength=243 nm, 10 μL injections, gradient: 40-80% ACN/H2O (1-7 min), 80% ACN (7-9 min), 80-40% ACN (9-11 min), 40% ACN (11-15 min), 10 mM ammonium formate, pH 7.40) which when compared against a standard (2 mg//mL) provided the concentration of free docetaxel in the sample.

[3] = day 16, one day after final dose
Procedure: The 20 mice were randomised into 5 groups of four mice (mean tumour volume ˜90 mm^3). Animals were eye bled in the morning for baseline blood cell counts and then drug dosing commenced later that day (day 1). […] A second eye bleed was performed on day 11 (Table 7 A-C). Mice were killed one day following the final drug dose (day 16).

[4] = Pharmacokinetic analysis, plasma half-life after IV administration; conditions: tritium labelled, IV administration into rats
Procedure: The plasma half-lives of tritium labelled docetaxel and the construct from Experiment 8 (c) (prepared using tritium labelled docetaxel) after IV administration into rats were determined (Kaminskas, L. M., Boyd, B. J., Karellas, P., Krippner, G. Y., Lessene, R., Kelly, B and Porter, C. J. H. “The Impact of Molecular Weight and PEG Chain Length on the Systemic Pharmacokinetics of PEGylated Poly-L-Lysine Dendrimers” Molecular Pharm. 2008, 5, 449-463).

A2780 = experiment: IC50 using the MTT assay; format: cell-based; conditions: 72 hours
Procedure: (§2) The IC50 using the MTT assay [Wilson, Anne P. (2000). “Chapter 7: Cytotoxicity and viability”. In Masters, John R. W. Animal Cell Culture: A Practical Approach. Vol. 1 (3rd ed.). Oxford: Oxford University Press] was determined against various cancer cell lines after 72 hours.

HT-29 = experiment: IC50 using the MTT assay; format: cell-based; conditions: 72 hours
Procedure: as §2

PC-3 = experiment: IC50 using the MTT assay; format: cell-based; conditions: 72 hours
Procedure: as §2

MCF-7 = experiment: IC50 using the MTT assay; format: cell-based; conditions: 72 hours
Procedure: as §2

DU-145 = experiment: IC50 using the MTT assay; format: cell-based; conditions: 72 hours
Procedure: as §2

HCT-116 = experiment: IC50 using the MTT assay; format: cell-based; conditions: 72 hours
Procedure: as §2

H460 = experiment: IC50 using the MTT assay; format: cell-based; conditions: 72 hours
Procedure: as §2

A549 = experiment: IC50 using the MTT assay; format: cell-based; conditions: 72 hours
Procedure: as §2

[5] = Particle sizing using Dynamic Light Scattering; format: physicochemical
[6] = tested on: MDA-MB-231 tumour xenografts; experiment: MDA-MB-231 mouse xenograft breast cancer model, SPL8996, SPL9005 and SPL9006 study; conditions: 28 mg/kg
Procedure: References to amounts dosed in mg/kg for the dendrimeric compounds are to the amounts of cabazitaxel that may theoretically be released by the dendrimers.
Each of the dendrimers was pre-weighed in glass vials and stored at 20° C. until use, and dissolved in saline immediately prior to dosing. Cabazitaxel was purchased from a commercial supplier.
Female Balb/c nude mice (age 7 weeks) were inoculated subcutaneously on the flank with 3.5×10^6 MDA-MB-231 cells in PBS:Matrigel (1:1). Mice were weighed and tumours measured twice weekly using electronic callipers. Tumour volume (mm^3) was calculated as length (mm)/2×width (mm)^2.
Mice received a small dish containing a food supplement (mixed with food dust) daily. The experiment was ended on day 150 or earlier if an ethical endpoint was met.

[7] = Day 1, i.v. day 1, 8, 15, docetaxel 15 mg/kg, Exp 3 (b) 20 mg/kg, Exp 8 (c) […] mg/kg

| Substance | Water solubility of dendrimer [1] | Equivalent drug solubility on dendrimer [1] | Mean tumour Volumne mm^3 (sd) (MDA-MB-231 tumours; [7]) | Mean tumour Volumne mm^3 (sd) (MDA-MB-231 tumours; Day 9, same doses) | Mean tumour Volumne mm^3 (sd) (MDA-MB-231 tumours; Day 19, same doses) | Mean tumour Volumne mm^3 (sd) (MDA-MB-231 tumours; Day 29, same doses) | Mean tumour Volumne mm^3 (sd) (MDA-MB-231 tumours; Day 40, same doses) | Mean tumour Volumne mm^3 (sd) (MDA-MB-231 tumours; Day 61, same doses) | Mean tumour Volumne mm^3 (sd) (MDA-MB-231 tumours; Day 81, same doses) | Mean tumour Volumne mm^3 (sd) (MDA-MB-231 tumours; Day 100, same doses) | Mean tumour Volumne mm^3 (sd) (MDA-MB-231 tumours; Day 120, same doses) | GI50 (PC-3 (Prostate)) | GI50 (H460 (Lung)) | GI50 (ES2 (Ovarian)) | Docetaxel release in plasma ([2]; 0.5 hours) | Docetaxel release in plasma ([2]; 2.5 hours) | Docetaxel release in plasma ([2]; 22 hours) | Mean Tumour Weights (g) (sd) [3] | other results |
| --- | --- | --- | --- | --- | --- | --- | --- | --- | --- | --- | --- | --- | --- | --- | --- | --- | --- | --- | --- |
| BHALys[Lys]32[α-DGA-DTX]32[ε-PEG1100]32 [Example 3 (b)] | 89 mg/mL | 23 mg/mL | 111.74 (6.65), mm^3 | 84.02 (6.33), mm^3 | 28.26 (1.91), mm^3 | 10.46 (0.5), mm^3 | 5.92 (1.31), mm^3 | 4 (0), mm^3 | 0.5 (0), mm^3 | 0.5 (0), mm^3 | 0.37 (0.12), mm^3 | 4.5 nM | 8 nM | 4 nM | 8.5 percentage of total docetaxel | 32.5 percentage of total docetaxel | 73 percentage of total docetaxel | 0.020 g | GI50 (DU145 (Prostate)): 4 nM; GI50 (MDA-MB-231 (Breast)): 0.5 nM; GI50 (A549 (Lung)): 3.5 nM; GI50 (HT29 (Colon)): 2 nM; GI50 (A2058 (Melanoma)): 2 nM; GI50 (MCAS (Ovarian)): 7 nM; GI50 (HCT116 (Colon)): 1 nM |
| BHALys[Lys]32[α-TDA-DTX]32[ε-PEG1100]32 [Example 8 (c)] | 131 mg/mL | 41 mg/mL | 111.73 (6.41), mm^3 | 108.86 (9.31), mm^3 | 30.59 (1.64), mm^3 | 11.58 (1.2), mm^3 | 5.75 (0.92), mm^3 | 4 (0), mm^3 | 0.5 (0), mm^3 | 1.67 (0.74), mm^3 | 16.2 (10.24), mm^3 | 9.5 nM | 7 nM | 12 nM | 4.5 percentage of total docetaxel | 13.5 percentage of total docetaxel | 43 percentage of total docetaxel | 0.033 g | plasma half-life [4]: approximately 30 hour |
| BHALys[Lys]32[α-TDA-DTX]32[ε-PolyPEG2000]32 [Example 19] | 477 mg/mL | 109 mg/mL | – | – | – | – | – | – | – | – | – | – | – | – | – | – | – | – | IC50 (A2780): 6.3 nM; IC50 (HT-29): 5.9 nM; IC50 (PC-3): 7.4 nM; IC50 (MCF-7): 6.3 nM; IC50 (DU-145): 15.5 nM; IC50 (HCT-116): 6.5 nM; IC50 (H460): 23.7 nM; IC50 (A549): 7.7 nM; Fold increase in drug solubility ([1]; equivalent drug solubility divided by solubility of the drug): 21900; particle size, range of concentration dependent averages [5]: 10.9-15.5 nm |
| N3-PEG24-CO(NPN)[Lys]32[α-TDA-Cabazitaxel]32†[ε-PEG˜1100]32‡ [SPL8996] | – | – | – | – | – | – | – | – | – | – | – | – | – | – | – | – | – | – | tumour regrowth at the conclusion of the study on day 150 [6]: one tumour in the SPL-8996 group which began to regrow by day 77 |

Reference: patent publication US20240335548A1, “MACROMOLECULES” (Starpharma Pty Ltd, priority 2011, published 2024)
